{"source": "paper PMC12651750", "about": "(Cells, 2025)", "key": {"[1]": {"tested_on": "Jurkat, human leukemic T cell line", "assay": "Anti-proliferation MTT / CCK-8 assay", "type": "cell-based", "conditions": "72 h; for IC50: Homo sapiens, Jurkat", "description": "(§1) These cells were purchased from the National Collection of Authenticated Cell Cultures (Shanghai, China).\n(§2) The concentration of the cell suspension was adjusted to the appropriate concentration with fresh medium (the number of cells was about 30–40% of the bottom area of the well plate). 150 μL (about 1 × 10^4 cells) of prepared cell suspension containing different concentrations of NBU-2 were added to a 96-microtiter plate, and 3 replicate wells were set up for each concentration. If the cells were adherent, the cells were first allowed to grow overnight in 96 microtiter plates until the cells were adherent, and then the old medium was replaced with the drug-containing medium. The plates were incubated in a 5% CO2 cell incubator at 37 °C for 72 h. Then, 15 μL of MTT solution was added to each well, 100 μL of 10% SDS solution (pH = 2) was added after 4 h, and the plate was incubated at 37 °C with 5% CO2 overnight to fully dissolve the crystals.\n(§3) The cells (about 1 × 10^4 cells) were treated with different concentrations of NBU-2 and DMSO control for different times (24 h, 48 h, 72 h), with 3 replicate wells for each concentration. Incubate at 37 °C in a 5% CO2 cell culture incubator. After a predetermined time, 10 μL of CCK-8 was added to each well and incubated for 2 h. The absorbance was measured at the excitation wavelength of 450 nm."}, "[2]": {"tested_on": "A549, human lung cancer cell line", "assay": "Anti-proliferation MTT / CCK-8 assay", "type": "cell-based", "conditions": "A549, read-out: IC50 proliferation A549, heading: IC50 proliferation A549, 72 h, mean ± SEM of three independent assays", "description": "(§4) K562, human erythroleukemia line; HL-60, human leukemic cell line; Jurkat, human leukemic T cell line; CCRF-CEM, human leukemic lymphoblasts; U937, human histiocytic lymphoma; HCT-116, human colorectal cancer cell line; A549, human lung cancer cell line; Hep G2, human hepatoma cell lines; MDA-MB-231, MCF-7, human breast cancer cell line; 4T1, mouse breast cancer cell line; PC12, pheochromocytoma of the rat adrenal medulla; HUVEC, human umbilical vein endothelial cells. These cells were purchased from the National Collection of Authenticated Cell Cultures (Shanghai, China).\nas §2, with “crystals. Finally, the absorbance value of each well was measured at 570 and 655 nm.” for “crystals.”\nas §3"}, "[3]": {"tested_on": "HCT-116, human colorectal cancer cell line", "assay": "Anti-proliferation MTT / CCK-8 assay", "type": "cell-based", "conditions": "HCT-116, read-out: IC50 proliferation HCT-116, heading: IC50 proliferation HCT-116, 72 h, mean ± SEM of three independent assays", "description": "as §4\nas §2, with “crystals. Finally, the absorbance value of each well was measured at 570 and 655 nm.” for “crystals.”\nas §3"}, "[4]": {"tested_on": "MCF-7, human breast cancer cell line", "assay": "Anti-proliferation MTT / CCK-8 assay", "type": "cell-based", "conditions": "MCF7, read-out: IC50 proliferation MCF-7, heading: IC50 proliferation MCF-7, 72 h, mean ± SEM of three independent assays", "description": "as §4\nas §2, with “crystals. Finally, the absorbance value of each well was measured at 570 and 655 nm.” for “crystals.”\nas §3"}, "[5]": {"tested_on": "HUVEC, human umbilical vein endothelial cells", "assay": "Toxicity on normal cells (MTT / CCK-8 assay)", "type": "cell-based", "description": "as §1, §2, §3"}, "HDAC1": {"target": "HDAC1 (Homo sapiens, UniProt Q13547)", "sequence (Q13547 whole entry)": "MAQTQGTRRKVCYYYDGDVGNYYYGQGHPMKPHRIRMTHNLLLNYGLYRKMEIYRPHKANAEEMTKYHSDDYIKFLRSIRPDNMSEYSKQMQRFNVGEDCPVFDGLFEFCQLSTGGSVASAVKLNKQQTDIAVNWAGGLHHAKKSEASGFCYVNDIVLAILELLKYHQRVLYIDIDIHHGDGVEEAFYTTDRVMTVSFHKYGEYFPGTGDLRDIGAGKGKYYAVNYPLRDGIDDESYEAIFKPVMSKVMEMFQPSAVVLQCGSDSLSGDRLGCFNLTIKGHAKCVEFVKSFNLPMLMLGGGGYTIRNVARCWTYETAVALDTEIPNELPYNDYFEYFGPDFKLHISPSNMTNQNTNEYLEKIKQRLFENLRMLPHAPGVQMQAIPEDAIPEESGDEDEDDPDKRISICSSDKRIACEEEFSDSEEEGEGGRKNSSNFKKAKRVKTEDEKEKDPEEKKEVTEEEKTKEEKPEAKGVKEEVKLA", "assay": "In vitro HDAC enzymatic inhibition assay (HDAC kit, fluorescence)", "procedure": "(§5) Enzymatic assays were performed by Shanghai ChemPartner according to the HDAC kit protocol. […] Fluorescence was recorded at 355 nm excitation and 460 nm emission on a Synergy MX reader (PerkinElmer Life Sciences, Boston, MA, USA). IC50 values were derived from dose–response curves."}, "HDAC6": {"target": "T1, HDAC6 (Homo sapiens, UniProt Q9UBN7)", "T1 sequence (Q9UBN7 1-1215)": "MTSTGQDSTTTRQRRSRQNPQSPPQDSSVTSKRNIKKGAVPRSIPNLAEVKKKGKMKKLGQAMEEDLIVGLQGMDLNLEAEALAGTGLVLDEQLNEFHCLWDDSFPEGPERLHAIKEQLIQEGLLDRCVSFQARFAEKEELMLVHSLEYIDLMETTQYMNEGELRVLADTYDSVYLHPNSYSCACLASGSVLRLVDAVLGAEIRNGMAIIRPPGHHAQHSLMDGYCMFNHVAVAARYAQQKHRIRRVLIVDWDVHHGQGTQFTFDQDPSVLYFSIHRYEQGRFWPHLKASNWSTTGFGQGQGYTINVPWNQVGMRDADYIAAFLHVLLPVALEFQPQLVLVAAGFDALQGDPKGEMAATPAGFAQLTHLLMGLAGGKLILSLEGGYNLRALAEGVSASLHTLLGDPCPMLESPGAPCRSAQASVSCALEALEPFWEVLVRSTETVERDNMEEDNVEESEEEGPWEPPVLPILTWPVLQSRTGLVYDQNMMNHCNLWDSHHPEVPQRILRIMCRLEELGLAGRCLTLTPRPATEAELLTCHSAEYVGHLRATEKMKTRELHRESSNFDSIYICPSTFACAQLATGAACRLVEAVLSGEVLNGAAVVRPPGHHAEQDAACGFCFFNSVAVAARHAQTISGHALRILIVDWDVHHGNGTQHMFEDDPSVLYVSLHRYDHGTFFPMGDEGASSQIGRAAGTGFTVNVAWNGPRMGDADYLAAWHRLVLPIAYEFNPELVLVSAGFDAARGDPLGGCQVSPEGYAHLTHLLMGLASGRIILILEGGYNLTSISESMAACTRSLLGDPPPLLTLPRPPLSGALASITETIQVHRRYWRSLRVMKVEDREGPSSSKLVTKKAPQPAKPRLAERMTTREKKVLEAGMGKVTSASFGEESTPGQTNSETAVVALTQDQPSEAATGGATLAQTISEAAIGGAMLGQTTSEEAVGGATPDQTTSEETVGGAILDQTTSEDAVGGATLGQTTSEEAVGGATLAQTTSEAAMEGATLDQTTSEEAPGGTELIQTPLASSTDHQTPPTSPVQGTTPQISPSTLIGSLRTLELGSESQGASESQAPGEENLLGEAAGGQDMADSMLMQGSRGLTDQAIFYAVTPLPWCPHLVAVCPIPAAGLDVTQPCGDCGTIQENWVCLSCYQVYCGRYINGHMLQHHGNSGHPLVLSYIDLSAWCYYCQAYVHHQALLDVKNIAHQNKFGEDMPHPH", "assay": "In vitro HDAC enzymatic inhibition assay (HDAC kit, fluorescence)", "procedure": "as §5"}}, "note": "Like-named read-outs stand apart in the source and are kept apart here."}
{"smiles": "Cc1cccc2c(=O)c3c(NCCCCCC(=O)NO)ccc([N+](=O)[O-])c3[nH]c12", "note": "[NBU-2, N-hydroxy-6-((5-methyl-4-nitro-9-oxo-9,10-dihydroacridin-1-yl)amino)hexanamide]", "values": [{"measurement": "Inhibitory effect on Jurkat cells over time", "setting": "[1]; CCK-8, 24 h, 48 h, various concentrations", "result": "concentration and time-dependent"}, {"measurement": "IC50", "setting": "[1]; read-out: IC50 against Jurkat cells", "result": 860, "unit": "nM"}, {"measurement": "IC50", "setting": "[1]; read-out: IC50 proliferation Jurkat, heading: IC50 proliferation Jurkat, mean ± SEM of three independent assays", "result": "860 ± 130", "unit": "nM"}, {"measurement": "IC50", "setting": "[2]", "result": "33.7 ± 2.15", "unit": "µM"}, {"measurement": "IC50", "setting": "[3]", "result": "7.06 ± 1.48", "unit": "µM"}, {"measurement": "IC50", "setting": "[4]", "result": "14.9 ± 3.21", "unit": "µM"}, {"measurement": "IC50", "setting": "[5]; 72 h, read-out: IC50 anti-proliferative activity against HUVECs", "result": 35.6, "unit": "µM"}, {"measurement": "IC50", "setting": "[5]; read-out: IC50 proliferation HUVEC (normal cells), heading: IC50 proliferation HUVEC, 72 h, mean ± SEM of three independent assays", "result": "35.6 ± 7.3", "unit": "µM"}, {"measurement": "IC50", "setting": "HDAC1", "result": "7.75 ± 0.57", "unit": "nM"}, {"measurement": "IC50", "setting": "HDAC6", "result": "7.34 ± 0.6", "unit": "nM"}]}
